Tested on: 889142-216-R-J1-PDC complex spheroid viability
Test: Anticancer human tumor 889142-216-R-J1-PDC patient-derived bladder carcinoma cell line growth inhibition [POLQ]
Conditions: for IC50: curve of first compound; for viability, T/C: stronger effect = lower value
How it was run: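 Complex spheroid viability model combining PDC tumour cells with endothelial (HUVEC) and MSC stromal cells. Novobiocin, ART-558 or RP6685 were tested singly and in combination with standard and investigational anticancer drugs. Each was titrated in half-log steps from near clinical Cmax, or from 10 microM where Cmax was unknown.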

[1] = second compound 0.0316 µM, first compound 0.0316 µM
[2] = second compound 0.0316 µM, first compound 0.1 µM
[3] = second compound 0.1 µM, first compound 0.0316 µM
[4] = second compound 0.1 µM, first compound 0.1 µM
[5] = second compound 0.316 µM, first compound 0.0316 µM
[6] = second compound 0.316 µM, first compound 0.1 µM
[7] = second compound 1 µM, first compound 0.0316 µM
[8] = second compound 1 µM, first compound 0.1 µM
[9] = second compound 3.16 µM, first compound 0.0316 µM
[10] = second compound 3.16 µM, first compound 0.1 µM
[11] = second compound 10 µM, first compound 0.0316 µM
[12] = second compound 10 µM, first compound 0.1 µM
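Note: spheroids exposed to compounds for seven days.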
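Throughout, for viability, T/C: 100% = DMSO vehicle control viability.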

In the case of `CC(=O)O[C@H]1C(=O)[C@@]2(C)[C@H]([C@H](OC(=O)c3ccccc3)[C@]3(O)C[C@H](OC(=O)[C@H](O)[C@@H](NC(=O)c4ccccc4)c4ccccc4)C(C)=C1C3(C)C)[C@]1(OC(C)=O)CO[C@@H]1C[C@@H]2O` + Nc1ccc(C#CCN(C(=O)Cc2ncc(C(F)(F)F)cc2C(F)(F)F)c2ccc(F)cc2)nn1, the IC50 (second compound 0.0316 µM) is reported as 0.072 µM, the IC50 (second compound 0.1 µM) is reported as 0.907 µM and the IC50 (second compound 0.316 µM) is reported as > 3 µM. For the same compound, the IC50 (second compound 1 µM) was 1.33 µM, the IC50 (second compound 3.16 µM) was < 0.00949 µM and the IC50 (second compound 10 µM) was > 3 µM. It also gave a viability, T/C (second compound 0.0316 µM, first compound 0.00949 µM) of 53.5%, a viability, T/C (second compound 0.0316 µM, first compound 0.03 µM) of 45.8% and a viability, T/C (second compound 0.0316 µM, first compound 0.0949 µM) of 51.5%. The viability, T/C (second compound 0.0316 µM, first compound 0.3 µM) was 50.9%, the viability, T/C (second compound 0.0316 µM, first compound 0.949 µM) was 49.4% and the viability, T/C (second compound 0.0316 µM, first compound 3 µM) was 43.8%. For the same compound, the viability, T/C (second compound 0.1 µM, first compound 0.00949 µM) was 57.1%, the viability, T/C (second compound 0.1 µM, first compound 0.03 µM) was 41.5% and the viability, T/C (second compound 0.1 µM, first compound 0.0949 µM) was 54.6%. For the same compound, the viability, T/C (second compound 0.1 µM, first compound 0.3 µM) was 51.2%, the viability, T/C (second compound 0.1 µM, first compound 0.949 µM) was 53.1% and the viability, T/C (second compound 0.1 µM, first compound 3 µM) was 47.1%. For the same compound, the viability, T/C (second compound 0.316 µM, first compound 0.00949 µM) was 53%, the viability, T/C (second compound 0.316 µM, first compound 0.03 µM) was 57.2% and the viability, T/C (second compound 0.316 µM, first compound 0.0949 µM) was 46.3%. The viability, T/C (second compound 0.316 µM, first compound 0.3 µM) was 50.3%, the viability, T/C (second compound 0.316 µM, first compound 0.949 µM) was 61.7% and the viability, T/C (second compound 0.316 µM, first compound 3 µM) was 50.9%. The viability, T/C (second compound 1 µM, first compound 0.00949 µM) was 53.7%, the viability, T/C (second compound 1 µM, first compound 0.03 µM) was 51% and the viability, T/C (second compound 1 µM, first compound 0.0949 µM) was 52%. It also gave a viability, T/C (second compound 1 µM, first compound 0.3 µM) of 50.6%, a viability, T/C (second compound 1 µM, first compound 0.949 µM) of 51.8% and a viability, T/C (second compound 1 µM, first compound 3 µM) of 48.6%. The viability, T/C (second compound 3.16 µM, first compound 0.00949 µM) was 45.2%, the viability, T/C (second compound 3.16 µM, first compound 0.03 µM) was 54% and the viability, T/C (second compound 3.16 µM, first compound 0.0949 µM) was 51.3%. For the same compound, the viability, T/C (second compound 3.16 µM, first compound 0.3 µM) was 46.7%, the viability, T/C (second compound 3.16 µM, first compound 0.949 µM) was 53.3% and the viability, T/C (second compound 3.16 µM, first compound 3 µM) was 57.1%. For the same compound, the viability, T/C (second compound 10 µM, first compound 0.00949 µM) was 55%, the viability, T/C (second compound 10 µM, first compound 0.03 µM) was 52.2% and the viability, T/C (second compound 10 µM, first compound 0.0949 µM) was 55.5%. It also gave a viability, T/C (second compound 10 µM, first compound 0.3 µM) of 59.3%, a viability, T/C (second compound 10 µM, first compound 0.949 µM) of 59.9% and a viability, T/C (second compound 10 µM, first compound 3 µM) of 53.3%.
`CC[C@@]1(O)C(=O)OCc2c1cc1n(c2=O)Cc2cc3c(CN(C)C)c(O)ccc3nc2-1` + Nc1ccc(C#CCN(C(=O)Cc2ncc(C(F)(F)F)cc2C(F)(F)F)c2ccc(F)cc2)nn1 was tested, and the IC50 (second compound 0.0316 µM) was > 0.1 µM, the IC50 (second compound 0.1 µM) was > 0.1 µM and the IC50 (second compound 0.316 µM) was > 0.1 µM. For the same compound, the IC50 (second compound 1 µM) was > 0.1 µM, the IC50 (second compound 3.16 µM) was > 0.1 µM and the IC50 (second compound 10 µM) was > 0.1 µM. The viability, T/C (second compound 0.0316 µM, first compound 0.000316 µM) was 101%, the viability, T/C (second compound 0.0316 µM, first compound 0.001 µM) was 78.3% and the viability, T/C (second compound 0.0316 µM, first compound 0.00316 µM) was 95.8%. The viability, T/C (second compound 0.0316 µM, first compound 0.01 µM) was 87.9%, the viability, T/C [1] was 67.5% and the viability, T/C [2] was 56.1%. It also gave a viability, T/C (second compound 0.1 µM, first compound 0.000316 µM) of 99.4%, a viability, T/C (second compound 0.1 µM, first compound 0.001 µM) of 89.4% and a viability, T/C (second compound 0.1 µM, first compound 0.00316 µM) of 91.3%. For the same compound, the viability, T/C (second compound 0.1 µM, first compound 0.01 µM) was 75.2%, the viability, T/C [3] was 59.7% and the viability, T/C [4] was 52.4%. For the same compound, the viability, T/C (second compound 0.316 µM, first compound 0.000316 µM) was 86.8%, the viability, T/C (second compound 0.316 µM, first compound 0.001 µM) was 77.6% and the viability, T/C (second compound 0.316 µM, first compound 0.00316 µM) was 116%. The viability, T/C (second compound 0.316 µM, first compound 0.01 µM) was 94.8%, the viability, T/C [5] was 54.7% and the viability, T/C [6] was 59.2%. For the same compound, the viability, T/C (second compound 1 µM, first compound 0.000316 µM) was 86.9%, the viability, T/C (second compound 1 µM, first compound 0.001 µM) was 67.1% and the viability, T/C (second compound 1 µM, first compound 0.00316 µM) was 109%. It also gave a viability, T/C (second compound 1 µM, first compound 0.01 µM) of 70.7%, a viability, T/C [7] of 63.1% and a viability, T/C [8] of 55.9%. The viability, T/C (second compound 3.16 µM, first compound 0.000316 µM) was 87.1%, the viability, T/C (second compound 3.16 µM, first compound 0.001 µM) was 74.4% and the viability, T/C (second compound 3.16 µM, first compound 0.00316 µM) was 109%. It also gave a viability, T/C (second compound 3.16 µM, first compound 0.01 µM) of 89.4%, a viability, T/C [9] of 57.4% and a viability, T/C [10] of 52.6%. The viability, T/C (second compound 10 µM, first compound 0.000316 µM) was 121%, the viability, T/C (second compound 10 µM, first compound 0.001 µM) was 135% and the viability, T/C (second compound 10 µM, first compound 0.00316 µM) was 86.2%. It also gave a viability, T/C (second compound 10 µM, first compound 0.01 µM) of 72.6%, a viability, T/C [11] of 70.5% and a viability, T/C [12] of 53.4%.
In the case of `O=c1[nH]cc(F)c(=O)[nH]1` + Nc1ccc(C#CCN(C(=O)Cc2ncc(C(F)(F)F)cc2C(F)(F)F)c2ccc(F)cc2)nn1, the IC50 (second compound 0.0316 µM) is reported as > 10 µM, the IC50 (second compound 0.1 µM) is reported as > 10 µM and the IC50 (second compound 0.316 µM) is reported as > 10 µM. For the same compound, the IC50 (second compound 1 µM) was > 10 µM, the IC50 (second compound 3.16 µM) was > 10 µM and the IC50 (second compound 10 µM) was > 10 µM. It also gave a viability, T/C [1] of 91.6%, a viability, T/C [2] of 86.2% and a viability, T/C (second compound 0.0316 µM, first compound 0.316 µM) of 90%. For the same compound, the viability, T/C (second compound 0.0316 µM, first compound 1 µM) was 80%, the viability, T/C (second compound 0.0316 µM, first compound 3.16 µM) was 81.1% and the viability, T/C (second compound 0.0316 µM, first compound 10 µM) was 60.7%. It also gave a viability, T/C [3] of 91.1%, a viability, T/C [4] of 78.8% and a viability, T/C (second compound 0.1 µM, first compound 0.316 µM) of 58.8%. The viability, T/C (second compound 0.1 µM, first compound 1 µM) was 75.1%, the viability, T/C (second compound 0.1 µM, first compound 3.16 µM) was 67.1% and the viability, T/C (second compound 0.1 µM, first compound 10 µM) was 69.1%. It also gave a viability, T/C [5] of 108%, a viability, T/C [6] of 73.9% and a viability, T/C (second compound 0.316 µM, first compound 0.316 µM) of 68%. It also gave a viability, T/C (second compound 0.316 µM, first compound 1 µM) of 82.7%, a viability, T/C (second compound 0.316 µM, first compound 3.16 µM) of 68.3% and a viability, T/C (second compound 0.316 µM, first compound 10 µM) of 61.7%. It also gave a viability, T/C [7] of 83.4%, a viability, T/C [8] of 101% and a viability, T/C (second compound 1 µM, first compound 0.316 µM) of 79.8%. For the same compound, the viability, T/C (second compound 1 µM, first compound 1 µM) was 66.6%, the viability, T/C (second compound 1 µM, first compound 3.16 µM) was 61.9% and the viability, T/C (second compound 1 µM, first compound 10 µM) was 60.1%. It also gave a viability, T/C [9] of 82.7%, a viability, T/C [10] of 89.2% and a viability, T/C (second compound 3.16 µM, first compound 0.316 µM) of 83.3%. For the same compound, the viability, T/C (second compound 3.16 µM, first compound 1 µM) was 67.4%, the viability, T/C (second compound 3.16 µM, first compound 3.16 µM) was 72.4% and the viability, T/C (second compound 3.16 µM, first compound 10 µM) was 73.8%. The viability, T/C [11] was 109%, the viability, T/C [12] was 103% and the viability, T/C (second compound 10 µM, first compound 0.316 µM) was 83.2%. It also gave a viability, T/C (second compound 10 µM, first compound 1 µM) of 78.4%, a viability, T/C (second compound 10 µM, first compound 3.16 µM) of 68.6% and a viability, T/C (second compound 10 µM, first compound 10 µM) of 67.2%.

Source: PubChem BioAssay AID1963831 (Molecular Pharmacology Branch, DTP, NCI, 2024)
